Experimental data from US20260116845A1, “LIPIDS AND COMPOSITIONS THEREOF” (Kernal Biologics, Inc., priority 2023, published 2026).

Key:
AML12 Cell Line = test: Transfection of AML12 Cell Line with FLuc mRNA LNPs (ONE-Glo EX luciferase signal); format: cell-based; conditions: 200 ng Fluc mRNA-LNP, 24 hours; Table 4
Method: (§1) mRNA encapsulated lipid nanoparticles (mRNA LNPs) were formulated using microfluidic mixing with a PNI Ignite instrument. Briefly, lipids (ionizable: structural: helper: PEG) were dissolved in ethanol and mixed with and aqueous solution of mRNA. These mRNA-loaded dispersions were then neutralized via a buffer exchange with a pre-determined buffer overnight. Afterwards, formed LNPs were concentrated with Amicon filter centrifugation, filtered, concentration of mRNA determined through a ribogreen assay, and frozen at −80° C. until use.
(§2) Cell lines were grown to confluence in T75 flasks using complete media of DMEM-F12 for AML12 and DMEM for both B16F10 and MC38.K. Cells were plated in a white 96 flat-well plate (AML12=20,000 cells/well, B16F10 and MC38.K=5,000 cells/well) with their respected media. Lipid nanoparticles were first diluted to 50 μg/ml using Opti-MEM and pre-incubated with mouse serum for 30 minutes to give an LNP concentration of 8 μg/ml. Cell media was replaced with Opti-MEM and LNPs were added to cells (200 ng of mRNA-LNP), placed back in the incubator, and allowed to transfect for 24 hours. Afterwards, 100 μl of Promega's ONE-Glo™ EX Luciferase Assay System or Promega's CellTiter-Glo® Luminescent Cell Viability Assay was added and mixed in their respective wells, followed by recording luminescence signals on a Thermo Scientific Varioskan LUX multimode microplate reader. The results are shown in FIG. 1, FIG. 2, FIG. 3, FIG. 4, FIG. 5, FIG. 6, FIG. 10, FIG. 11, and FIG. 21.

Liver = test: Ex-vivo luminescence signal from liver after IV Fluc mRNA LNPs in CD1 mice (IVIS); conditions: tail vein 1.0 mg/kg Day 0 and Day 2, imaging 18 hours after second dose, Table 4
MC38.K Cell Line = test: Transfection of MC38.K Cell Line with FLuc mRNA LNPs (ONE-Glo EX luciferase signal); format: cell-based; conditions: 200 ng Fluc mRNA-LNP, 24 hours; Table 4
Method: as §1, §2

B16F10 Cell Line = test: Transfection of B16F10 Cell Line with FLuc mRNA LNPs (ONE-Glo EX luciferase signal); format: cell-based; conditions: 200 ng Fluc mRNA-LNP, 24 hours; Table 4
Method: as §1, §2

SMILES: CCCCCCCCCOC(=O)CCCCCCCN(CCO)CCCCCCC(C)C(=O)OC(CCCCCCCC)CCCCCCCC (stereo not drawn) [Compound 36]
- Total Luciferin Signal (RLU) In Vitro - AML12 (AML12 Cell Line): 2.18E+05 RLU
- Total Liver Tissue Luciferin Signal (Photons/s) Ex-vivo - CD1 (Liver): 6.41E+08 Photons/s
- Total Luciferin Signal (RLU) In Vitro - MC38.K (MC38.K Cell Line): 2.32E+05 RLU
- Total Luciferin Signal (RLU) In Vitro - B16F10 (B16F10 Cell Line): 2.85E+05 RLU

SMILES: CCCCCCCCC(CCCCCCCC)C(=O)OCCCCCCCN(CCO)CCCCCC(=O)OCCCCCCCCC(C)C [Compound 6]
- Total Luciferin Signal (RLU) In Vitro - AML12 (AML12 Cell Line): 8.42E+05 RLU
- Total Liver Tissue Luciferin Signal (Photons/s) Ex-vivo - CD1 (Liver): 2.10E+09 Photons/s
- Total Luciferin Signal (RLU) In Vitro - MC38.K (MC38.K Cell Line): 9.66E+05 RLU
- Total Luciferin Signal (RLU) In Vitro - B16F10 (B16F10 Cell Line): 5.77E+05 RLU

SMILES: CCCCCCCCCOC(=O)CCCCCN(CCO)CCCCCCCC(=O)OC(CCCCCCCC)CCCCCCCCF (stereo not drawn) [Compound 34]
- Total Luciferin Signal (RLU) In Vitro - AML12 (AML12 Cell Line): 1.56E+05 RLU
- Total Liver Tissue Luciferin Signal (Photons/s) Ex-vivo - CD1 (Liver): 1.89E+09 Photons/s
- Total Luciferin Signal (RLU) In Vitro - MC38.K (MC38.K Cell Line): 4.19E+05 RLU
- Total Luciferin Signal (RLU) In Vitro - B16F10 (B16F10 Cell Line): 238754.8 RLU

SMILES: CCCCCCCCC(CCCCCCCCF)C(=O)OCCCCCCCN(CCO)CCCCCCCOC(=O)CCCCCCCCC(C)C (stereo not drawn) [Compound 60, 7-((7-((10-fluoro-2-octyldecanoyl)oxy)heptyl)(2-hydroxyethyl)amino)heptyl 10-methylundecanoate]
- Total Luciferin Signal (RLU) In Vitro - AML12 (AML12 Cell Line): 8.00E+05 RLU
- Total Liver Tissue Luciferin Signal (Photons/s) Ex-vivo - CD1 (Liver): 3.00E+09 Photons/s
- Total Luciferin Signal (RLU) In Vitro - MC38.K (MC38.K Cell Line): 5.21E+06 RLU
- Total Luciferin Signal (RLU) In Vitro - B16F10 (B16F10 Cell Line): 3.17E+05 RLU

SMILES: CCCCCCCCC(CCCCCCCCF)OC(=O)CCCCCN(CCCCO)CCCCCC(=O)OCCCCCCCCCCC(C)C (stereo not drawn) [Compound 63, 1-fluoroheptadecan-9-yl 6-((4-hydroxybutyl)(6-((11-methyldodecyl)oxy)-6-oxohexyl)amino)hexanoate]
- Total Luciferin Signal (RLU) In Vitro - AML12 (AML12 Cell Line): 5.69E+05 RLU
- Total Liver Tissue Luciferin Signal (Photons/s) Ex-vivo - CD1 (Liver): 3.02E+09 Photons/s
- Total Luciferin Signal (RLU) In Vitro - MC38.K (MC38.K Cell Line): 1.35E+07 RLU
- Total Luciferin Signal (RLU) In Vitro - B16F10 (B16F10 Cell Line): 6.91E+05 RLU

SMILES: CCCCCCCCC(CCCCCCCF)OC(=O)CCCCCCCN(CCO)CCCCCC(=O)OC(CCCCCCCC)CCCCCCCC (stereo not drawn) [Compound 29]
- Total Luciferin Signal (RLU) In Vitro - AML12 (AML12 Cell Line): 8.52E+04 RLU
- Total Liver Tissue Luciferin Signal (Photons/s) Ex-vivo - CD1 (Liver): 7.57E+09 Photons/s
- Total Luciferin Signal (RLU) In Vitro - MC38.K (MC38.K Cell Line): 2.97E+05 RLU
- Total Luciferin Signal (RLU) In Vitro - B16F10 (B16F10 Cell Line): 8.63E+05 RLU

SMILES: CCCCCCCCC(CCCCCCCF)OC(=O)CCCCCCCN(CCO)CCCCCC(=O)OCCCCCCC(C)C (stereo not drawn) [Compound 26]
- Total Luciferin Signal (RLU) In Vitro - AML12 (AML12 Cell Line): 1.95E+05 RLU
- Total Liver Tissue Luciferin Signal (Photons/s) Ex-vivo - CD1 (Liver): 5.54E+09 Photons/s
- Total Luciferin Signal (RLU) In Vitro - MC38.K (MC38.K Cell Line): 2.33E+05 RLU
- Total Luciferin Signal (RLU) In Vitro - B16F10 (B16F10 Cell Line): 1.73E+05 RLU

SMILES: CCCCCCCCC(CCCCCCCCF)OC(=O)CCCCCN(CCO)CCCCCC(=O)OCCCCCCCCCCC(C)C (stereo not drawn) [Compound 70, 1-fluoroheptadecan-9-yl 6-((2-hydroxyethyl)(6-((11-methyldodecyl)oxy)-6-oxohexyl)amino)hexanoate]
- Total Luciferin Signal (RLU) In Vitro - AML12 (AML12 Cell Line): 7.41E+05 RLU
- Total Liver Tissue Luciferin Signal (Photons/s) Ex-vivo - CD1 (Liver): 4.87E+09 Photons/s
- Total Luciferin Signal (RLU) In Vitro - MC38.K (MC38.K Cell Line): 5.15E+06 RLU
- Total Luciferin Signal (RLU) In Vitro - B16F10 (B16F10 Cell Line): 7.68E+05 RLU

SMILES: CC(C)CCCCCCCCOC(=O)CCCCCCCN(CCO)CCCCCCCC(=O)OCCCCCCCCC(C)C [Compound 45]
- Total Luciferin Signal (RLU) In Vitro - AML12 (AML12 Cell Line): 3.98E+05 RLU
- Total Liver Tissue Luciferin Signal (Photons/s) Ex-vivo - CD1 (Liver): 4.18E+08 Photons/s
- Total Luciferin Signal (RLU) In Vitro - MC38.K (MC38.K Cell Line): 1.09E+06 RLU
- Total Luciferin Signal (RLU) In Vitro - B16F10 (B16F10 Cell Line): 1.98E+06 RLU

SMILES: CCCCCCCCCOC(=O)C(C)CCCCCCN(CCCCO)CCCCCCCC(=O)OC(CCCCCCCC)CCCCCCCC (stereo not drawn) [Compound 62, nonyl 8-((8-(heptadecan-9-yloxy)-8-oxooctyl)(4-hydroxybutyl)amino)-2-methyloctanoate]
- Total Luciferin Signal (RLU) In Vitro - AML12 (AML12 Cell Line): 2.33E+06 RLU
- Total Liver Tissue Luciferin Signal (Photons/s) Ex-vivo - CD1 (Liver): 1.03E+10 Photons/s
- Total Luciferin Signal (RLU) In Vitro - MC38.K (MC38.K Cell Line): 3.47E+07 RLU
- Total Luciferin Signal (RLU) In Vitro - B16F10 (B16F10 Cell Line): 2.73E+06 RLU

SMILES: CCCCCCCCC(CCCCCCCC)C(=O)OCCCCCCCN(CCO)CCCCCCCC(=O)OCCCCCCCCC(C)C [Compound 4]
- Total Luciferin Signal (RLU) In Vitro - AML12 (AML12 Cell Line): 1.72E+06 RLU
- Total Liver Tissue Luciferin Signal (Photons/s) Ex-vivo - CD1 (Liver): 1.06E+09 Photons/s
- Total Luciferin Signal (RLU) In Vitro - MC38.K (MC38.K Cell Line): 3.54E+06 RLU
- Total Luciferin Signal (RLU) In Vitro - B16F10 (B16F10 Cell Line): 2.16E+06 RLU

SMILES: CCCCCCCCCOC(=O)CCCCCN(CCO)CCCCCCCC(=O)OC(CCCCCCCC)CCCCCCCF (stereo not drawn) [Compound 25]
- Total Luciferin Signal (RLU) In Vitro - AML12 (AML12 Cell Line): 1.09E+05 RLU
- Total Liver Tissue Luciferin Signal (Photons/s) Ex-vivo - CD1 (Liver): 2.05E+09 Photons/s
- Total Luciferin Signal (RLU) In Vitro - MC38.K (MC38.K Cell Line): 9.18E+05 RLU
- Total Luciferin Signal (RLU) In Vitro - B16F10 (B16F10 Cell Line): 4.43E+05 RLU

SMILES: CCCCCCCCC(CCCCCCCC)OC(=O)CCCCCN(CCO)CCCCCC(=O)OCCCCCCCCCCC(C)C [Compound 16]
- Total Luciferin Signal (RLU) In Vitro - AML12 (AML12 Cell Line): 1.67E+06 RLU
- Total Liver Tissue Luciferin Signal (Photons/s) Ex-vivo - CD1 (Liver): 5.11E+09 Photons/s
- Total Luciferin Signal (RLU) In Vitro - MC38.K (MC38.K Cell Line): 2.39E+06 RLU
- Total Luciferin Signal (RLU) In Vitro - B16F10 (B16F10 Cell Line): 7.67E+06 RLU

SMILES: CCCCCCCCCCCOC(=O)CCCCCN(CCCCCCCC(=O)OC(CCCCCCCC)CCCCCC(C)C)CCOC(=O)CCCN(C)C (stereo not drawn) [Compound 19]
- Total Luciferin Signal (RLU) In Vitro - AML12 (AML12 Cell Line): 6.91E+05 RLU
- Total Liver Tissue Luciferin Signal (Photons/s) Ex-vivo - CD1 (Liver): 1.28E+08 Photons/s
- Total Luciferin Signal (RLU) In Vitro - MC38.K (MC38.K Cell Line): 1.90E+06 RLU
- Total Luciferin Signal (RLU) In Vitro - B16F10 (B16F10 Cell Line): 1.27E+06 RLU

SMILES: CCCCCCCCCOC(=O)CCCCCCCN(CCCCCCC(C)C(=O)OC(CCCCCCCC)CCCCCCCC)CCOC(=O)CCCN(C)C (stereo not drawn) [Compound 38, heptadecan-9-yl 8-((2-((4-(dimethylamino)butanoyl)oxy)ethyl)(8-(nonyloxy)-8-oxooctyl)amino)-2-methyloctanoate]
- Total Luciferin Signal (RLU) In Vitro - AML12 (AML12 Cell Line): 1.22E+06 RLU
- Total Liver Tissue Luciferin Signal (Photons/s) Ex-vivo - CD1 (Liver): 5.28E+07 Photons/s
- Total Luciferin Signal (RLU) In Vitro - MC38.K (MC38.K Cell Line): 2.06E+06 RLU
- Total Luciferin Signal (RLU) In Vitro - B16F10 (B16F10 Cell Line): 2.75E+06 RLU

SMILES: CCCCCCCCC(CCCCCCCCF)OC(=O)CCCCCN(CCCCO)CCCCC(C)C(=O)OCCCCCCCCCCC(C)C (stereo not drawn) [Compound 64, 11-methyldodecyl 6-((6-((1-fluoroheptadecan-9-yl)oxy)-6-oxohexyl)(4-hydroxybutyl)amino)-2-methylhexanoate]
- Total Luciferin Signal (RLU) In Vitro - AML12 (AML12 Cell Line): 1.02E+06 RLU
- Total Liver Tissue Luciferin Signal (Photons/s) Ex-vivo - CD1 (Liver): 4.39E+09 Photons/s
- Total Luciferin Signal (RLU) In Vitro - MC38.K (MC38.K Cell Line): 2.41E+07 RLU
- Total Luciferin Signal (RLU) In Vitro - B16F10 (B16F10 Cell Line): 1.10E+06 RLU

SMILES: CCCCCCCCCOC(=O)C(C)CCCCCCN(CCO)CCCCCCCC(=O)OC(CCCCCCCC)CCCCCCCCF (stereo not drawn) [Compound 61, nonyl 8-((8-((1-fluoroheptadecan-9-yl)oxy)-8-oxooctyl)(2-hydroxyethyl)amino)-2-methyloctanoate]
- Total Luciferin Signal (RLU) In Vitro - AML12 (AML12 Cell Line): 8.13E+05 RLU
- Total Liver Tissue Luciferin Signal (Photons/s) Ex-vivo - CD1 (Liver): 1.38E+10 Photons/s
- Total Luciferin Signal (RLU) In Vitro - MC38.K (MC38.K Cell Line): 1.11E+07 RLU
- Total Luciferin Signal (RLU) In Vitro - B16F10 (B16F10 Cell Line): 9.46E+05 RLU

SMILES: CCCCCCCCC(CCCCCCCC)OC(=O)CCCCCCCN(CCO)CCCCCCC(C)C(=O)OCCCCCCCCC(C)C (stereo not drawn) [Compound 59, 9-methyldecyl 8-((8-(heptadecan-9-yloxy)-8-oxooctyl)(2-hydroxyethyl)amino)-2-methyloctanoate]
- Total Luciferin Signal (RLU) In Vitro - AML12 (AML12 Cell Line): 8.24E+05 RLU
- Total Liver Tissue Luciferin Signal (Photons/s) Ex-vivo - CD1 (Liver): 5.55E+09 Photons/s
- Total Luciferin Signal (RLU) In Vitro - MC38.K (MC38.K Cell Line): 8.40E+06 RLU
- Total Luciferin Signal (RLU) In Vitro - B16F10 (B16F10 Cell Line): 6.17E+05 RLU
